Tested on: cocoa callus
Assay: Induction of cocoa callus development with 2,4-D and chitosan
Type: cell-based, Theobroma cacao
Description: After surface sterilization, seeds (grains) were subjected to induction of calluses in specific media for tissue cultures as follows (see Murashige, T. and Skoog, F. “A revised medium for rapid growth and bioassays with tobacco tissue cultures,” Physiologia Plantarum, 1962, Vol 15: 473-495). Disinfected cocoa seeds were submitted to extraction of embryonic cells under aseptic conditions, and transferred to growth medium (MS), which contains mineral salts and microelements, and which is enriched with myo-inositol (100 mg/L) and sucrose (30 g/L), with gellan gum (2.4 g/L) as a gelling agent. The cocoa explants were incubated under dark conditions for 7 days at 22-24° C. After the incubation period, the cocoa embryonic cells were subcultured in nutrient media with the same types of ingredients as the media mentioned above, but containing different concentrations of auxins (growth hormones 2,4-D), using […] (0, 0.1, 0.5, 1.0 and 2.0 mg/L). […]
Different concentrations including 0, 0.1, 0.2, 0.5, 1, 2, 4, mg/L of kinetin were evaluated. Also, kinetin was used with or without 2,4-D at concentration of 2 mg/L. The growth of calluses was evaluated after 100 days, and different parameters were used to determine the effects of the growth regulators on callus growth including % of disaggregation and height and diameter of the callus. […]

O=C(O)COc1ccc(Cl)cc1Cl [2,4 D, 2,4-dichlorophenoxyacetic acid]
growth in cocoa calluses (2 mg/L, all three cocoa phenotypes, early stages of development): induced larger growth
% of Callus Development (2,4-D 2 mgL^−1, initial callus development, three cocoa phenotypes): 22.9167%
